# Reference: patent US20100022457A1 (Bristol-Myers Squibb Company, priority 2006, published 2010)
# Where two headings read alike, the source gives them in different places. Where a SMILES comes first, the peptide text is derived from it. [ ]: non-standard residue; d: D form. The star is where a group is joined. ξ: configuration not given here. Ala(6-(2-MePh)pyridin-3-yl) = Cc1ccccc1-c1ccc(C[C@H](N)C(=O)O)cn1; Phe(4-(2-Et-4-HO-Ph)) = CCc1cc(O)ccc1-c1ccc(C[C@H](N)C(=O)O)cc1; Bip(2'-Et-4'-OMe) = CCc1cc(OC)ccc1-c1ccc(C[C@H](N)C(=O)O)cc1; Lactoyl(3-(imidazol-4-yl)) = O=C([C@@H](O)Cc1c[nH]cn1)*; Bip(2'-Me) = Cc1ccccc1-c1ccc(C[C@H](N)C(=O)O)cc1; d(αMePhe(2-F)) = C[C@@](N)(Cc1ccccc1F)C(=O)O; αMePhe(2-F) = C[C@](N)(Cc1ccccc1F)C(=O)O; ξαMePhe(2-F) = CC(N)(Cc1ccccc1F)C(=O)O; Thr(3ξ) = CC(O)[C@H](N)C(=O)O; ξαMeP = CC1(C(=O)O)CCCN1; Aib = CC(C)(N)C(=O)O; Moc = COC(=O)*
# What was measured:
# [1] = Exposure during ipGTT in ob/ob mice; assay type: in vivo, mouse; settings: sc
# [2] = Dog pharmacokinetic study (intravenous and subcutaneous, 67 μg/kg); assay type: in vivo; settings: for half-life: read-out: t½ (converted)
# Experimental: The pharmacokinetic parameters of the compound of SEQ ID NO:9 were determined in male beagle dogs (n=4, 14±1 kg). Following an overnight fast, each animal received the compound of SEQ ID NO:9 either as an intravenous bolus via femoral vein (67 μg/kg) or by subcutaneous injection given at near the shoulder blades (67 μg/kg). Each animal received both intravenous and subcutaneous doses with a one-week washout between doses following a crossover design. […] Serial blood samples were collected in EDTA-containing microcentrifuge tubes at predose, 0.083, 0.25, 0.5, 0.75, 1, 2, 4, 6, 8, 24, and 30 hours post-dose after intravenous administration; at predose, 0.25, 0.5, 0.75, 1, 2, 4, 6, 8, 24, and 30 hours post-dose after subcutaneous administration. Approximately 0.3 mL of blood was collected at each time point. Blood samples were immediately centrifuged at 4° C. The obtained plasma was frozen with dry ice and stored at −20° C. Plasma drug levels were determined using the LC-MS/MS assay described above.
# Plasma samples from in vivo dog study were prepared for analysis by precipitating plasma proteins with two volumes of acetonitrile containing an internal standard. The samples were vortex mixed and removed the precipitated proteins by centrifugation. The resulting supernatants were transferred to a 96-well plate and 10 μL were injected for analysis. Samples were prepared with the Packard Multiprobe II and Quadra 96 Liquid Handling System.
# The HPLC system consisted of two Shimadzu LC10AD pumps (Columbia, Md.), a CTC PAL autosampler (Leap Technologies, Switzerland). The column used was a YMC Hydrosphere C18 (2.0×50 mm, 3 μm) (YMC, Inc., Milford, Mass.). The column temperature was maintained at 50° C. and the flow rate was 0.3 mL/minute. The mobile phase A consisted of 10 mM ammonium formate and 0.1% formic acid in water and mobile phase B consisted of 0.1% formic acid in acetonitrile. The initial mobile phase composition was 5% B, and remained at 5% B for one minute to equilibrate the column. The composition was ramped to 95% B over two minutes and held there for one additional minute. The mobile phase was then returned to initial conditions in one minute. Total analysis time was five minutes. A switching valve was used. The eluents between 0-1 minute were diverted to the waste.
# The HPLC was interfaced to a Sciex API 4000 mass spectrometer, (Applied Biosystems, Foster City, Calif.) and was equipped with a TurboIonspray ionization source. Ultra high purity nitrogen was used as the nebulizing and turbo gas. The temperature of turbo gas was set at 300° C. and the interface heater was set at 60° C. Data acquisition utilized selected reaction monitoring (SRM). Ions representing the (M+2H)^2+ species for the compound of SEQ ID NO:9, and (M+2H)^2+ for BMS-501143 (IS) were selected in Q1 and were collisionally dissociated with high purity nitrogen at a pressure of 3.5×10^−3 torr to form specific product ions which were subsequently monitored by Q3.
# The standard curve concentrations, ranging from 1 to 1000 nM and from 4 to 5000 nM, were used for the in vivo samples obtained from low and high doses, respectively. The curves were fitted with a quadratic regression weighted by reciprocal […]. Standards were analyzed in duplicate. Quality control (QC) samples, prepared in blank matrix at the same concentrations as the standard were also analyzed in each analytical set. For the compound of SEQ ID NO:9, the calculated concentrations of more than 80% of the QCs were within 20% of nominal concentration, indicating acceptable assay performance.
# The compound of SEQ ID NO:9 plasma concentration vs. time data were analyzed by noncompartmental methods using the […]™ software program. The Cmax and Tmax values were recorded directly from experimental observations. The AUC0-n and AUCtot values were calculated using a combination of linear and log trapezoidal summations. […]
# C57BL/6J-ob/ob mice = test: Intraperitoneal glucose tolerance test (ipGTT) in ob/ob mice after subcutaneous injection; assay type: in vivo, mouse; settings: for Potency in ob/ob mice ED50: sc injection, plasma glucose AUC in ipGTT; for effect on postprandial plasma glucose: sc in ob/ob mice, between 0 and 180 or 210 minutes
# Experimental: Peptides were dissolved in an appropriate vehicle at a concentration in nmol/ml equivalent to the dose that was to be administered in nmol/kg so that each mouse would receive the same volume/weight of dosing solution. Male C57BL/6J-ob/ob mice (10 weeks old) were randomized into groups of 6 mice per group based on fed plasma glucose and body weight. After an overnight fast, mice were weighed and placed in the experimental lab. After 30 min in the environment, the mice were bled via tail tip at −30 min and immediately injected subcutaneously (sc) with vehicle or the peptide dissolved in vehicle (0.1 ml solution/100 g body weight). At time 0 the mice were bled and then injected intraperitoneally with 50% glucose (2 g/kg) to initiate the intraperitoneal glucose tolerance test (ipGTT). The mice were bled 30, 60, 120 and 180 min after the glucose injection. Blood samples were drawn into potassium EDTA, placed on ice during the study and subsequently centrifuged for 10 min at 3000 rpm at 4° C. Plasma samples were diluted 1-fold for glucose analysis in the Cobas System. Another 5 μl plasma sample was diluted 5-fold with 20 μl of Sample Diluent (Insulin ELISA assay kit, Crystal Chem Inc.) and stored at −20° C. for subsequent analysis using the Ultra Sensitive Mouse Insulin ELISA kit (Crystal Chem Inc.).
# [3] = Table I, vehicle propylene glycol/pH 7.4 phosphate buffer (1:1)
# [4] = Table II, vehicle propylene glycol/pH 7.4 phosphate buffer (1:1)
# [5] = Table I, vehicle 0.2 M Tris buffer (pH 8.0)
# [6] = male, beagle, plasma, 67 ug/kg, dog, intravenous 67 μg/kg, Tables 6B/6C, vehicle not given
# [7] = male, beagle, plasma, sc, 67 ug/kg, dog, subcutaneous 67 μg/kg, Tables 6B/6C (Table I footnote: 0.2 M Tris buffer pH 8.0)
Exposure/dose during ipGTT in ob/ob mice [1] [nM*h/nmol/kg],"Exposure in dogs (sc@67 μg/kg) [2, 3] [µM·h]","Exposure in dogs (sc@67 μg/kg) [2, 4] [µM·h]","Exposure in dogs (sc@67 μg/kg) [2, 5] [µM·h]",Compound,Potency in ob/ob mice ED50 (C57BL/6J-ob/ob mice) [nmol/kg],effect on postprandial plasma glucose (C57BL/6J-ob/ob mice),further results
22,0.089,0.089,–,"CCc1cc(OC)ccc1-c1ccc(C[C@H](NC(=O)[C@H](CC(=O)O)NC(=O)[C@H](CO)NC(=O)[C@@H](NC(=O)[C@@](C)(Cc2ccccc2F)NC(=O)[C@@H](NC(=O)CNC(=O)[C@H](CCC(=O)O)NC(=O)C(C)(C)NC(=O)[C@@H](N)Cc2c[nH]cn2)C(C)O)C(C)O)C(=O)N[C@@H](Cc2ccc(-c3ccccc3C)cc2)C(N)=O)cc1 (stereo partly shown) [Compound I, reference compound] (H-H[Aib]EG[Thr(3ξ)][d(αMePhe(2-F))][Thr(3ξ)]SD[Bip(2'-Et-4'-OMe)][Bip(2'-Me)]-NH2)",50,–,"Potency in ob/ob mice: % AUC Reduction in Plasma Glucose in an IP Glucose Tolerance Test after SC Injection of Compound (C57BL/6J-ob/ob mice; 10 nmol/kg sc, relative to vehicle-treated group): −15% (p = 0.247, NS)"
4.4,4.02,–,–,CCc1cc(OC)ccc1-c1ccc(C[C@H](NC(=O)[C@H](CC(=O)O)NC(=O)[C@H](CO)NC(=O)[C@@H](NC(=O)C(C)(Cc2ccccc2F)NC(=O)[C@@H](NC(=O)CNC(=O)[C@H](CCC(=O)O)NC(=O)C2(C)CCCN2C(=O)[C@@H](N)Cc2c[nH]cn2)[C@@H](C)O)[C@@H](C)O)C(=O)N[C@@H](Cc2ccc(-c3ccccc3C)nc2)C(N)=O)cc1 (stereo partly shown) [SEQ ID NO: 118] (H-H[ξαMeP]EGT[ξαMePhe(2-F)]TSD[Bip(2'-Et-4'-OMe)][Ala(6-(2-MePh)pyridin-3-yl)]-NH2),2.5,statistically significant decrease,"plasma glucose AUC decrease (C57BL/6J-ob/ob mice; 30 nmol/kg sc, ipGTT ob/ob mice): 81%"
–,–,0.94,–,CCc1cc(OC)ccc1-c1ccc(C[C@H](NC(=O)[C@H](CC(=O)O)NC(=O)[C@H](CO)NC(=O)[C@@H](NC(=O)[C@](C)(Cc2ccccc2F)NC(=O)[C@@H](NC(=O)CNC(=O)[C@H](CCC(=O)O)NC(=O)[C@@H](C)NC(=O)[C@@H](N)Cc2c[nH]cn2)[C@@H](C)O)[C@@H](C)O)C(=O)N[C@@H](Cc2ccc(-c3ccccc3C)nc2)C(N)=O)cc1 [SEQ ID NO: 149] (H-H[dA]EGT[αMePhe(2-F)]TSD[Bip(2'-Et-4'-OMe)][Ala(6-(2-MePh)pyridin-3-yl)]-NH2),–,–,–

# The remaining lines, values behind:
Compound,Exposure/dose during ipGTT in ob/ob mice [1] [nM*h/nmol/kg],"Exposure in dogs (sc@67 μg/kg) [2, 3] [µM·h]","Exposure in dogs (sc@67 μg/kg) [2, 4] [µM·h]","Exposure in dogs (sc@67 μg/kg) [2, 5] [µM·h]",Potency in ob/ob mice ED50 (C57BL/6J-ob/ob mice) [nmol/kg],effect on postprandial plasma glucose (C57BL/6J-ob/ob mice),further results
CCc1cc(OC)ccc1-c1ccc(C[C@H](NC(=O)[C@H](CC(=O)O)NC(=O)[C@H](Cc2c[nH]cn2)NC(=O)[C@@H](NC(=O)C(C)(Cc2ccccc2F)NC(=O)[C@@H](NC(=O)CNC(=O)[C@H](CCC(=O)O)NC(=O)C2(C)CCCN2C(=O)[C@@H](O)Cc2c[nH]cn2)[C@@H](C)O)[C@@H](C)O)C(=O)N[C@@H](Cc2ccc(-c3ccccc3C)nc2)C(N)=O)cc1 (stereo partly shown) [SEQ ID NO: 151] ({Lactoyl(3-(imidazol-4-yl))}-[ξαMeP]EGT[ξαMePhe(2-F)]THD[Bip(2'-Et-4'-OMe)][Ala(6-(2-MePh)pyridin-3-yl)]-NH2),16,–,–,1.566,–,statistically significant decrease,"AUC [2, 6]: 1.52 ± 0.424 µM·h; MRT [2, 6]: 4.4 ± 0.1 h; clearance ([2]; male, beagle, plasma, 67 ug/kg, dog, intravenous 67 μg/kg, Tables 6B/6C, vehicle not given, read-out: CLp): 0.49 ± 0.16 mL/min/kg; Vd ([2]; male, beagle, plasma, 67 ug/kg, dog, intravenous 67 μg/kg, Tables 6B/6C, vehicle not given, read-out: Vss): 0.13 ± 0.05 L/kg; half-life [2, 6]: 4 ± 0.2 h; AUC [2, 7]: 1.57 ± 0.235 µM·h; MRT [2, 7]: 5.8 ± 1 h; Tmax [2, 7]: 1.8 ± 0.5 h; bioavailability [2, 7]: 110 ± 41%; Cmax ([2]; male, beagle, plasma, sc, 67 ug/kg, dog, subcutaneous 67 μg/kg, Tables 6B/6C (Table I footnote: 0.2 M Tris buffer pH 8.0), read-out: Cmax): 252 ± 15 nM; half-life [2, 7]: 4.4 ± 1.4 h"
CCc1cc(O)ccc1-c1ccc(C[C@H](NC(=O)[C@H](CC(=O)O)NC(=O)[C@H](CO)NC(=O)[C@@H](NC(=O)C(C)(Cc2ccccc2F)NC(=O)[C@@H](NC(=O)CNC(=O)[C@H](CCC(=O)O)NC(=O)C2(C)CCCN2C(=O)[C@H](Cc2c[nH]cn2)NC(=O)OC)[C@@H](C)O)[C@@H](C)O)C(=O)N[C@@H](Cc2ccc(-c3ccccc3C)nc2)C(N)=O)cc1 (stereo partly shown) [SEQ ID NO: 158] (Moc-H[ξαMeP]EGT[ξαMePhe(2-F)]TSD[Phe(4-(2-Et-4-HO-Ph))][Ala(6-(2-MePh)pyridin-3-yl)]-NH2),11,–,–,1.467,–,statistically significant decrease,–
